Where no end group is shown, it is not given here. [ ]: non-standard residue; d: D form. 1Nal = N[C@@H](Cc1cccc2ccccc12)C(=O)O; Aib = CC(C)(N)C(=O)O

This assay deals with Normal male Wistar rats. Briefly: Intravenous glucose tolerance test in normal rats. The class given is in vivo. The settings on record: IVGTT; for insulin AUC: 0 to 30 min. The method, then:
Effects on Blood Glucose Excursion During an Intravenous Glucose Tolerance Test in Normal Rats
Normal male Wistar rats (225-250 g) are used in the study. Animals are randomized into groups based on fed body weight and blood glucose. Animals are injected with vehicle or peptide analog (dose 3-400 μg peptide content/kg) 16 hours prior to the start of the test. Food is removed at the time of injection. Prior to the assay the animals are put under anesthesia, Phenobarbital 65 mg/kg i.p., and two catheters are inserted, one in the jugular vein and the other in the carotid artery. At time 0, animals are given 0.5 g glucose/kg through the venous catheter. Blood is collected from the carotid artery at time 0 (pre glucose), 2, 4, 6, 10, 20 and 30 minutes after glucose challenge. Glucose concentration is measured by glucometer. Insulin is measured by Mesoscale®. Efficacy is measured as the increase in total area under the insulin curve (=integrated plasma insulin values from t+0 to 30 min) as well as the area under the glucose curve which is a measure of the glucose excursion following the intravenous glucose challenge.

“Aib^2, Aib^13, Nal^22, Aib^29, Cys^43(PEG20K), Cys^44 (PEG20K)-GIP (Y[Aib]EGTFTSDYSI[Aib]LDKIAQRA[1Nal]VQWLIA[Aib]KGKKQEWKHQITQC(PEG 20 kDa)C(PEG 20 kDa)-NH2) [Example 4]”: the “insulin AUC and glucose AUC compared to vehicle-treated rats” value was “increased insulin AUC and decreased glucose AUC”. Moreover, the “glucose AUC” value (50 μg/Kg) was 7730 mg·min/dL. Also, the “insulin AUC” value (50 μg/Kg 16 hours before test) is 150 ng·min/mL. The “glucose AUC” value (200 μg/Kg) worked out at 7420 mg·min/dL. In addition, the “insulin AUC” value (200 μg/Kg 16 hours before test) was 161 ng·min/mL.

The values above are taken from patent US8815811B2, “Peptides and methods for their preparation and use” (Eli Lilly and Company, priority 2010, dated 2014).
